# Assays:
# Format in all cases: cell-based
# E. coli K12 (ATCC 25404) = assay: MIC and MBC, microtiter plate technique; details: Escherichia coli; for MBC: ATCC25404; for MIC: ATCC25404, 24 h
# E. coli R2 (ATCC 39544) = assay: MIC and MBC, microtiter plate technique; details: Escherichia coli; for MBC: ATCC39544; for MIC: ATCC39544, 24 h
# E. coli R3 (ATCC 11775) = assay: MIC and MBC, microtiter plate technique; details: Escherichia coli; for MIC: ATCC11775, 24 h, resazurin; for MBC: ATCC11775, TTC
# E. coli R4 (ATCC 39543) = assay: MIC and MBC, microtiter plate technique; details: Escherichia coli; for MBC: ATCC39543; for MIC: ATCC39543, 24 h
# [1] = system: A. baumannii (ATCC 17978); assay: MIC and MBC, microtiter plate technique; details: ATCC17978, Acinetobacter baumannii; for MIC: 24 h, resazurin; for MBC: TTC
# [2] = system: P. aeruginosa (ATCC 15442); assay: MIC and MBC, microtiter plate technique; details: ATCC15442, Pseudomonas aeruginosa; for MIC: 24 h, resazurin; for MBC: TTC
# E. cloacae (ATCC 49141) = assay: MIC and MBC, microtiter plate technique; details: ATCC49141, Enterobacter cloacae; for MIC: 24 h, resazurin; for MBC: TTC
# S. aureus (ATCC 23235) = assay: microbe, parasite or virus in culture; details: Staphylococcus aureus; for MBC: ATCC23235; for MIC: ATCC23235, 24 h
SMILES,MBC (E. coli K12 (ATCC 25404)) [µM],MIC (E. coli K12 (ATCC 25404)) [µM],MBC (E. coli R2 (ATCC 39544)) [µM],MIC (E. coli R2 (ATCC 39544)) [µM],MIC (E. coli R3 (ATCC 11775)) [µM],MBC (E. coli R3 (ATCC 11775)) [µM],MBC (E. coli R4 (ATCC 39543)) [µM],MIC (E. coli R4 (ATCC 39543)) [µM],MIC [1] [µM],MBC [1] [µM],MIC [2] [µM],MBC [2] [µM],MIC (E. cloacae (ATCC 49141)) [µM],MBC (E. cloacae (ATCC 49141)) [µM],MBC (S. aureus (ATCC 23235)) [µM],MIC (S. aureus (ATCC 23235)) [µM]
COc1ccc(CNC(=O)C(c2ccc(O)c(O)c2)N(C(=O)Cc2ccccc2)C2CCCCC2)cc1 (stereo not drawn) [Compound 5e],0.87,0.3,0.89,0.71,0.89,1.15,1.29,1.37,0.72,0.75,0.67,0.69,0.64,0.7,0.69,0.67
"COc1ccc(CNC(=O)C(c2ccc(O)c(O)c2)N(Cc2ccc(OC)cc2)C(C)=O)cc1 (stereo not drawn) [Compound 5k, 2-(3,4-dihydroxyphenyl)-N-(4-methoxybenzyl)-2-(N-(4-methoxybenzyl)acetamido)-acetamide]",0.79,0.58,1.27,1.27,2.13,2.58,2.82,2.55,0.93,1,1.15,1.21,1.14,1.26,1.18,1.18
"COc1ccc(CN(C(C)=O)C(C(=O)NCc2ccccc2)c2ccc(O)c(O)c2)cc1 (stereo not drawn) [Compound 5j, N-benzyl-2-(3,4-dihydroxyphenyl)-2-(N-(4-methoxybenzyl)acetamido)acetamide]",0.82,0.26,1.19,0.74,1.08,1.28,1.47,1.22,0.8,0.85,0.77,0.82,0.76,0.81,0.74,0.78
"COc1ccc(CN(C(C)=O)C(C(=O)NCc2ccc(F)cc2)c2ccc(O)c(O)c2)cc1 (stereo not drawn) [Compound 5l, 2-(3,4-dihydroxyphenyl)-N-(4-fluorobenzyl)-2-(N-(4-methoxybenzyl)acetamido)-acetamide]",0.77,0.64,1.21,1.17,1.64,2.62,2.76,2.61,1,1.03,1.23,1.26,1.23,1.27,1.28,1.27
"COc1ccc(CNC(=O)C(c2ccc(O)c(O)c2)N(C(C)=O)C2CCCCC2)cc1 (stereo not drawn) [Compound 5n, 2-(N-cyclohexylacetamido)-2-(3,4-dihydroxyphenyl)-N-(4-methoxybenzyl)acetamide]",0.77,0.39,1.3,0.76,1.1,1.3,1.44,1.48,0.75,0.79,0.78,0.82,0.8,0.8,0.83,0.72
"CC(=O)N(C1CCCCC1)C(C(=O)NCc1ccccc1)c1ccc(O)c(O)c1 (stereo not drawn) [Compound 5m, N-benzyl-2-(N-cyclohexylacetamido)-2-(3,4-dihydroxyphenyl)acetamide]",0.85,0.35,1.31,0.94,1.24,1.38,1.53,0.59,0.79,0.88,0.8,0.91,0.81,0.89,0.78,0.75

# Reference: article PMC11855086, “Synthesis, Antimicrobial Activity, and Tyrosinase Inhibition by Multifunctional 3,4-Dihydroxy-Phenyl Peptidomimetics” (International Journal of Molecular Sciences, 2025)
